Measured values taken from ChEMBL document CHEMBL3112467, “In vitro phenotypic screening of 7-chloro-4-amino(oxy)quinoline derivatives as putative anti-Trypanosoma cruzi agents” (Bioorg Med Chem Lett, 2014).

Legend:
[1] = Cytotoxicity against mouse NCTC-929 cells after 48 hrs by resazurin staining-based fluorescence assay; assay type: cell-based; settings: read-out: LC50
[2] = in vitro; settings: mouse, NCTC-929 cells
Description: Selectivity index, ratio of LC50 for mouse NCTC-929 cells to IC50 for amastigote stage of Trypanosoma cruzi CL Brener infected in mouse NCTC-929 cells

[3] = test system: Trypanosoma cruzi; experiment: Antimicrobial activity against epimastigote stage of Trypanosoma cruzi CL Brener assessed as growth inhibition at […] after 72 hrs by beta-galactosidase reporter gene assay; assay type: functional; settings: read-out: GI
[4] = test system: Trypanosoma cruzi; experiment: Antimicrobial activity against amastigote stage of Trypanosoma cruzi CL Brener infected in mouse NCTC-929 cells assessed as growth inhibition at 32 uM after 7 days by beta-galactosidase reporter gene assay; assay type: functional; settings: NCTC-929, 168 h, read-out: GI
[5] = test system: Trypanosoma cruzi; experiment: Antimicrobial activity against amastigote stage of Trypanosoma cruzi CL Brener infected in mouse NCTC-929 cells assessed as growth inhibition at 0.5 uM after 7 days by beta-galactosidase reporter gene assay; assay type: functional; settings: NCTC-929, 168 h, read-out: GI
[6] = test system: Trypanosoma cruzi; experiment: Antimicrobial activity against amastigote stage of Trypanosoma cruzi CL Brener infected in mouse NCTC-929 cells assessed as growth inhibition at 8 uM after 7 days by beta-galactosidase reporter gene assay; assay type: functional; settings: NCTC-929, 168 h, read-out: GI
[7] = test system: Trypanosoma cruzi; experiment: Antimicrobial activity against amastigote stage of Trypanosoma cruzi CL Brener infected in mouse NCTC-929 cells assessed as growth inhibition at 16 uM after 7 days by beta-galactosidase reporter gene assay; assay type: functional; settings: NCTC-929, 168 h, read-out: GI
[8] = Selectivity index, ratio of LC50 for mouse NCTC-929 cells to IC50 for epimastigote stage of Trypanosoma cruzi CL Brener; assay type: toxicity, cell-based; settings: read-out: Ratio LC50/IC50
[9] = test system: Trypanosoma cruzi; experiment: Antimicrobial activity against amastigote stage of Trypanosoma cruzi CL Brener infected in mouse NCTC-929 cells assessed as growth inhibition at 4 uM after 7 days by beta-galactosidase reporter gene assay; assay type: functional; settings: NCTC-929, 168 h, read-out: GI
[10] = test system: Trypanosoma cruzi; experiment: Antimicrobial activity against amastigote stage of Trypanosoma cruzi CL Brener infected in mouse NCTC-929 cells assessed as growth inhibition at 2 uM after 7 days by beta-galactosidase reporter gene assay; assay type: functional; settings: NCTC-929, 168 h, read-out: GI
[11] = test system: Trypanosoma cruzi; experiment: Antimicrobial activity against amastigote stage of Trypanosoma cruzi CL Brener infected in mouse NCTC-929 cells assessed as growth inhibition at 1 uM after 7 days by beta-galactosidase reporter gene assay; assay type: functional; settings: NCTC-929, 168 h, read-out: GI
[12] = Cytotoxicity against mouse NCTC-929 cells at […] after 48 hrs by resazurin staining-based fluorescence assay; assay type: cell-based; settings: read-out: INH
[13] = test system: Trypanosoma cruzi; experiment: Antimicrobial activity against amastigote stage of Trypanosoma cruzi CL Brener infected in mouse NCTC-929 cells assessed as growth inhibition after 7 days by beta-galactosidase reporter gene assay; assay type: functional, organism-based; settings: NCTC-929, 168 h
[14] = test system: Trypanosoma cruzi; experiment: Antimicrobial activity against epimastigote stage of Trypanosoma cruzi CL Brener assessed as growth inhibition after 72 hrs by beta-galactosidase reporter gene assay; assay type: functional, organism-based

Compound	CC50 at 48 h [1] [µM]	selectivity ratio [2]	inhibition of growth at […] [3] [%]	inhibition of growth at 32 µM [4] [%]	inhibition of growth at 0.5 µM [5] [%]	inhibition of growth at 8 µM [6] [%]	inhibition of growth at 16 µM [7] [%]	selectivity ratio [8]	inhibition of growth at 4 µM [9] [%]	inhibition of growth at 2 µM [10] [%]	inhibition of growth at 1 µM [11] [%]	cytotoxicity at 48 h, […] [12] [%]	IC50 [13] [µM]	IC50 [14] [µM]
O=C(Cn1ccnc1[N+](=O)[O-])NCc1ccccc1 [BENZNIDAZOLE]	> 256	> 320	82	100	41.6	96.6	100	> 9.44	74.7	64.4	55.6	17.4		
CC1CS(=O)(=O)CCN1/N=C/c1ccc([N+](=O)[O-])o1 (stereo unspecified) [NIFURTIMOX]			100	100	96.5	100	100		100	100	100	26.8	< 0.5	
Clc1ccc2c(NCc3ccccc3)ccnc2c1	2.28		95.1					3.71				71.4		6.55
O=C1CSC(c2ccc3c(c2)OCO3)N1CCNc1ccnc2cc(Cl)ccc12 (stereo unspecified)	19.5		84.3					2.85						6.84
